Assay: Toxicity study (necropsy, CBC, clinical chemistry) in tumor bearing mice
Format: in vivo, C57BL/6 mice
Conditions: mouse, in vivo
Experimental: Six adult female mice were submitted to necropsy. The strain designation of the mice was C57BL/6. […]
Animal studies were performed according to the animal studies protocol approved by Washington University Institutional Animal Care Facility. In vivo studies with mice were performed to compare the effects of SW V-49s, SV119. Erastin, a combination of SV119 with Erastin, and vehicle. […] C57BL/6 mice (6 weeks old. National Cancer Institute Laboratories) were injected in the right flank with 200 μL single cell suspension of KCKO cells in RPMI medium (25×10^4/10^5 cells per mouse). Mice were randomized into four groups (n=15). Treatment was started when the mean tumor diameter was ^˜5 mm. […] Erastin, equimolar mix of SV119 and Erastin. Tumors were measured every other day with a digital caliper. Several mice from different treatment groups were sent to the Division of Comparative Medicine in our institution for pathologic evaluation. Blood was collected for complete blood count (CBC) and biochemical analysis (AST, ALT, BUN, total bilirubin, and Cr). Organs were examined grossly and histologically.

With SW IV-134 the “differences in laboratory values (biochemical analysis) versus vehicle” value was “not statistically significant”.

— patent US10975069B2, “Sigma-2 receptor ligand drug conjugates as antitumor compounds, methods of synthesis and uses thereof” (priority 2014, dated 2021)
